Read-outs that look alike come from different tables or passages of the source.
Key:
Assay type in all cases: cell-based
ER-α in MCF-7 cells [1] = molecular target: T1, ER-α in MCF-7 cells (Homo sapiens, UniProt P03372); assay: Breast cancer cell ER-α in cell western assay (SP1); design: MCF-7 cells were adjusted to a concentration of 200,000 cells per mL; endogenous in cells; host or cells: MCF-7; details: 4 or 24 hr post compound addition; for Emax: MCF7, SP1 antibody, read-out: ER-α In Cell Western Assay (SP1) Max Response; for DC50: SP1 antibody, read-out: ER-α In Cell Western Assay (SP1) IC50
T1 sequence (P03372 1-595): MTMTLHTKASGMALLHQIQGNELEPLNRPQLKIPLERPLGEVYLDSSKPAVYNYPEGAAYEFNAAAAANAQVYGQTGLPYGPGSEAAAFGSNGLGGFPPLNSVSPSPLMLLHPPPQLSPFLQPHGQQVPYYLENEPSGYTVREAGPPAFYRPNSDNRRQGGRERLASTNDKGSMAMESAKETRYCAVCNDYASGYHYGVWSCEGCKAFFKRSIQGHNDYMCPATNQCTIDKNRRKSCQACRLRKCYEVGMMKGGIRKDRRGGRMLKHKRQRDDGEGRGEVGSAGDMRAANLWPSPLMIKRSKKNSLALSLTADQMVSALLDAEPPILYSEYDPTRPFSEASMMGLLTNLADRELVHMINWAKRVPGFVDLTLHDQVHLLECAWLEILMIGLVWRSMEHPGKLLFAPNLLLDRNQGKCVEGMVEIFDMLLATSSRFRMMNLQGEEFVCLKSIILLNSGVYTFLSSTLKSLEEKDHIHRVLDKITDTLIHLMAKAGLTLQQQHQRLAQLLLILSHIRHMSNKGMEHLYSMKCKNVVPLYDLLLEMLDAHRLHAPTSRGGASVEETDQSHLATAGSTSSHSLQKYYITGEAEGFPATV
Procedure: MCF-7 cells were adjusted to a concentration of 200,000 cells per mL in RPMI containing 10% charcoal-stripped FBS and 20 mM HEPES. 16 microliters of the cell suspension (3200 cells) was added to each well of a poly-D-lysine 384 well plate, and the cells were incubated overnight to allow the cells to adhere. The following day an eleven point, serial semilog dilution of each compound was added to the cells in 16 μL at a final concentration ranging from 0.3-0.000003 μM. At 4 or 24 hr post compound addition, the cells were fixed (10% formalin in PBS) for 20 minutes. Cells were permeablized in PBS 0.1% Triton and blocked with LICOR blocking buffer (50 μl/well, 90°). The wells were then incubated overnight at 4° C. with SP1 rabbit monoclonal Ab (Thermo Scientific) diluted 1:1000 in LICOR blocking buffer/0.1% Tween-20. Wells which were treated with blocking buffer with Tween but no antibody were used as a background control. Wells were washed with 0.1% Tween-20/PBS and then incubated in goat anti-rabbit IRDye™ 800CW (LICOR Inc.; 1:1000) and DRAQ5 DNA dye (1:2000 for 2 mM stock) diluted in LICOR blocking buffer containing 0.1% Tween-20 and 0.01% SDS for 60 minutes. Cells were washed (50 μl/well, 5′ each) in 0.1% Tween-20/PBS. Plates were scanned on a LICOR Odyssey infrared imaging system. Integrated intensities in the 800 nm channel and 700 nm channel were measured to determine levels of ER and DNA respectively. Percent ER levels were determined as follows: (Integrated intensity 800 nm sample/integrated intensity 700 nm sample)/(Integrated intensity 800 nm untreated cells/integrated intensity 700 nm untreated cells)×100=% ER levels.

MCF-7 cells = assay: Breast cancer cell viability assay (CellTiter-Glo, 5 days); details: 5 days' compound exposure; for IC50: Homo sapiens, MCF7, 120 h
Procedure, shortened: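 MCF-7 cells, 320 per well in RPMI with 10% FBS and 20 mM HEPES, adhered overnight, then exposed 5 days to an eleven-point semilog dilution (final 0.3-0.000003 μM). CellTiter-Glo luminescence read; % viability = (sample − cell-free background)/(untreated − background) × 100.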

ER-α in MCF-7 cells [2] = molecular target: T1, ER-α in MCF-7 cells; assay: Breast cancer cell ER-α in cell western assay (SP1); design: endogenous in cells; host or cells: MCF-7; details: 4 or 24 hr post compound addition; for Emax: MCF7, SP1 antibody, read-out: ER-α In Cell Western Assay (SP1) Max Response; for DC50: SP1 antibody, read-out: ER-α In Cell Western Assay (SP1) IC50
Procedure, shortened: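 ER-α protein levels were measured in MCF-7 cells after 4 or 24 hr compound exposure (final 0.3–0.000003 μM) in RPMI containing 10% charcoal-stripped FBS.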

| Emax (ER-α in MCF-7 cells [1]) [%] | DC50 (ER-α in MCF-7 cells [1]) [nM] | IC50 (MCF-7 cells) [nM] | Emax (ER-α in MCF-7 cells [2]) [%] | DC50 (ER-α in MCF-7 cells [2]) [nM] | SMILES | MCF7 Viability Assay Max Response (MCF-7 cells) |
| --- | --- | --- | --- | --- | --- | --- |
| ≥ 40 | > 100 | > 100 |  |  | CC/C(=C(/c1ccc(/C=C/C(=O)O)cc1)c1cn[nH]c1)c1ccccc1 [Compound 150] | + (+ = a single % value < 40%) |
| ≥ 40 | ≤ 100 | ≤ 100 |  |  | O=C(O)/C=C/c1ccc(/C(=C(\c2ccncc2Cl)C2CCC2)c2ccc3scnc3c2)cc1 [Compound 285] | ++ (++ = a single % value ≧ 40%) |
|  |  | ≤ 100 | ≥ 40 | ≤ 100 | CNC(=O)/C=C/c1ccc(/C(=C(\c2ccccc2)C2CCC2)c2ccc3[nH]ncc3c2)cc1 [Compound 412, (E)-3-(4-((E)-2-Cyclobutyl-1-(1H-indazol-5-yl)-2-phenylvinyl)phenyl)-N-methylacrylamide] | ++ (++ = a single % value ≧ 40%) |
|  |  | ≤ 100 | ≥ 40 | ≤ 100 | CC/C(=C(/c1ccc(/C=C/C(=O)O)cc1)c1ccc2nccn2c1)c1ccc(F)cc1C(F)(F)F [Compound 233, (E)-3-(4-((E)-2-(4-Fluoro-2-(trifluoromethyl)phenyl)-1-(imidazo[1,2-a]pyridin-6-yl)but-1-en-1-yl)phenyl)acrylic acid] | ++ (++ = a single % value ≧ 40%) |
